Assays:
[1] = tested on: S. aureus; assay: Biological activity against bacterial strains: S. aureus; type: cell-based, Staphylococcus aureus; design: unit not given here; conditions: for Biological Activity, S. aureus ATCC6538p: strain ATCC6538p; for Biological Activity, S. aureus ATCC14154*: strain ATCC14154, macrolide resistant strain; for Biological Activity, S. aureus ATCC29213: strain ATCC29213; for Biological Activity, S. aureus ATCC33591*: strain ATCC33591, macrolide resistant strain; for Biological Activity, S. aureus ATCCBAA-39*: strain ATCCBAA-39, macrolide resistant strain; for Biological Activity, S. aureus ATCCBAA-44*: strain ATCCBAA-44, macrolide resistant strain
[2] = tested on: S. pneumoniae; assay: Biological activity against bacterial strains: S. pneumoniae; type: cell-based, Streptococcus pneumoniae; design: Biological Activity, S. pneumoniae ATCC6301 / Biological Activity, S. pneumoniae ATCC700671 / Biological Activity, S. pneumoniae ATCC700676* / Biological Activity, S. pneumoniae ATCC700677* / Biological Activity, S. pneumoniae ATCC700905* / Biological Activity, S. pneumoniae ATCC700906* / Biological Activity, S. pneumoniae ATCC49619: unit not given here; conditions: for Biological Activity, S. pneumoniae ATCC6301: strain ATCC6301; for Biological Activity, S. pneumoniae ATCC49619: strain ATCC49619; for Biological Activity, S. pneumoniae ATCC700671: strain ATCC700671; for Biological Activity, S. pneumoniae ATCC700676*: strain ATCC700676, macrolide resistant strain; for Biological Activity, S. pneumoniae ATCC700677*: strain ATCC700677, macrolide resistant strain; for Biological Activity, S. pneumoniae ATCC700905*: strain ATCC700905, macrolide resistant strain; for Biological Activity, S. pneumoniae ATCC700906*: strain ATCC700906, macrolide resistant strain
[3] = tested on: E. faecalis; assay: Biological activity against bacterial strains: E. faecalis; type: cell-based, Enterococcus faecalis; conditions: strain ATCC51575
[4] = tested on: S. epidermidis; assay: Biological activity against bacterial strains: S. epidermidis; type: cell-based, Staphylococcus epidermidis; conditions: strain ATCC12228

SMILES	Biological Activity, S. aureus ATCC6538p [1]	Biological Activity, S. aureus ATCC14154* [1]	Biological Activity, S. aureus ATCC29213 [1]	Biological Activity, S. aureus ATCC33591* [1]	Biological Activity, S. aureus ATCCBAA-39* [1]	Biological Activity, S. aureus ATCCBAA-44* [1]	Biological Activity, S. pneumoniae ATCC6301 [2]	Biological Activity, S. pneumoniae ATCC49619 [2]	Biological Activity, S. pneumoniae ATCC700671 [2]	Biological Activity, S. pneumoniae ATCC700676* [2]	Biological Activity, S. pneumoniae ATCC700677* [2]	Biological Activity, S. pneumoniae ATCC700905* [2]	Biological Activity, S. pneumoniae ATCC700906* [2]	Biological Activity, E. faecalis ATCC51575 [3]	Biological Activity, S. epidermidis ATCC12228 [4]
CCC1OC(=O)CC(O)C(C)C(OC2OC(C)C(O)C(N(C)C)C2O)C(CC=O)CC(C)C(=NOCC(=O)N2CCN(c3ccccc3)CC2)C=CC(C)=CC1CO (stereo not drawn) [Compound C]	0.78	1.56	1.56	>12.5	>12.5	>12.5	0.025	0.01	0.025	0.39	6.25	0.20	>12.5	>12.5	0.20
CO[C@@H]1[C@@H](OC2OC(C)C(O)C(N(C)C)C2O)[C@@H](CC=O)C[C@@H](C)C(=N/OCCCOc2ccc3ncccc3c2)/C=C/C=C/C[C@@H](C)OC(=O)C[C@H]1O (stereo partly drawn) [Compound HH]	0.2	0.78	3.12	>12.5	>12.5	>12.5	0.025	0.025	0.025	0.025	3.12	0.025	>12.5	>12.5	0.78
CCC1OC(=O)CC(O)C(C)C(OC2OC(C)C(O)C(N(C)C)C2O)C(CC=O)CC(C)C(=NOCC=Cc2ccc3nccnc3c2)C=CC(C)=CC1CO (stereo not drawn) [Compound H]	0.20	0.39	0.39	>12.5	>12.5	>12.5	0.025	0.025	0.049	0.049	>12.5	0.049	>12.5	>12.5	0.20
CC[C@H]1OC(=O)C[C@@H](O)[C@H](C)[C@@H](OC2OC(C)C(O)C(N(C)C)C2O)[C@@H](CC=O)C[C@@H](C)C(=N/OCCOc2ccccc2)/C=C/C(C)=C/C1CO (stereo partly drawn) [Compound IIa]	0.78	1.56	1.56	>12.5	>12.5	>12.5	0.20	0.20	0.39	0.20	3.12	0.39	>12.5	>12.5	1.56
CC[C@H]1OC(=O)C[C@@H](O)[C@H](C)[C@@H](OC2OC(C)C(O)C(N(C)C)C2O)[C@@H](CC=O)C[C@@H](C)C(=N\OCc2ccc(F)cc2)/C=C/C(C)=C/C1CO (stereo partly drawn) [Compound IIc]	0.78	1.56	1.56	>12.5	>12.5	>12.5	0.2	0.2	0.39	0.2	3.12	0.39	>12.5	>12.5	1.56
CC[C@H]1OC(=O)C[C@@H](O)[C@H](C)[C@@H](OC2OC(C)C(O)C(N(C)C)C2O)[C@@H](CC=O)C[C@@H](C)C(=N/OCc2ccc(F)cc2)/C=C/C(C)=C/C1CO (stereo partly drawn) [Compound IId]	0.39	1.56	1.56	>12.5	>12.5	>12.5	0.025	0.2	0.2	0.025	1.56	0.2	>12.5	>12.5	0.78
CCC1OC(=O)CC(O)C(C)C(OC2OC(C)C(O)C(N(C)C)C2O)C(CCN2CC(C)CC(C)C2)CC(C)C(=NOCCOc2ccccc2)C=CC(C)=CC1COC1OC(C)C(O)C(OC)C1OC (stereo not drawn) [Compound O]	0.20	0.78	0.39	>12.5	>12.5	>12.5	0.39	0.78	0.39	1.56	6.25	0.78	12.5	>12.5	0.39
CCC1OC(=O)CC(O)C(C)C(OC2OC(C)C(O)C(N(C)C)C2O)C(CCN2CC(C)CC(C)C2)CC(C)C(=NOCCCOc2ccc3ncccc3c2)C=CC(C)=CC1CO (stereo not drawn) [Compound R]	12.5	>12.5	>12.5	>12.5	>12.5	>12.5	6.25	6.25	6.25	>12.5	>12.5	>12.5	>12.5	>12.5	>12.5
CCC1OC(=O)CC(O)C(C)C(OC2OC(C)C(O)C(N(C)C)C2O)C(CCN2CC(C)CC(C)C2)CC(C)C(=NOCCCOc2ccc3ncccc3c2)C=CC(C)=CC1CO (stereo not drawn) [Compound S]	>12.5	>12.5	>12.5	>12.5	>12.5	>12.5	6.25	6.25	6.25	12.5	>12.5	12.5	>12.5	>12.5	>12.5
CCC1OC(=O)CC(O)C(C)C(OC2OC(C)C(O)C(N(C)C)C2O)C(CCN2CC(C)CC(C)C2)CC(C)C(=NOCCOc2ccccc2)C=CC(C)=CC1CO (stereo not drawn) [Compound V]	0.78	6.25	6.25	>12.5	>12.5	>12.5	0.20	0.39	0.39	0.78	>12.5	0.39	>12.5	>12.5	6.25
CCC1OC(=O)CC(O)C(C)C(OC2OC(C)C(O)C(N(C)C)C2O)C(CCN2CC(C)CC(C)C2)CC(C)C(=NOCc2ccc(F)cc2)C=CC(C)=CC1CO (stereo not drawn) [Compound W]	0.78	3.12	3.12	>12.5	>12.5	>12.5	0.39	0.39	0.39	0.39	>12.5	0.39	>12.5	>12.5	3.12

Reference: patent US7247617B2, “Sixteen-member macrolide antiinfective agents” (Kosan Biosciences Incorporated, priority 2004, dated 2007)
